# From PMC9110766, “Structure-Based Design of 2-Aminopurine Derivatives as CDK2 Inhibitors for Triple-Negative Breast Cancer” (Frontiers in Pharmacology, 2022)
# Like-named read-outs stand apart in the source and are kept apart here.
# Key:
# CDK2/cyclin A = CDK2/cyclin A (Homo sapiens, UniProt P24941); experiment: CDK2 inhibition, Kinase-Glo Luminescent Kinase Assay; assay type: biochemical; conditions: geometric means of n ⩾ 3 experiments; 10 µM ATP; read-out: IC50 against CDK2
# Experimental: The IC50 values were calculated using Prism GraphPad software.
# CDK2/A = conditions: cited from earlier work
# CDK1/B = conditions: cited from earlier work
# MDA-MB-231 cells [1] = experiment: Cell cycle analysis (PI staining, flow cytometry); assay type: cell-based, human; conditions: 20 μM, 24 h, compared with negative control group
# Experimental: MDA-MB-231 cells were seeded in six-well plates and incubated with 20 μM compounds 11c, 11l, 11p, and vehicle (0.2% DMSO) for 24 h. Subsequently, cells were centrifugated and washed with cold PBS buffer. After the centrifugation, the supernatants were removed, and the cells were resuspended in PBS buffer. Then, 10 μl of PI were added and the cells were incubated in the dark for 15 min at room temperature. The stained cells were analyzed by a flow cytometer (BD Accuri C6).
# [2] = Cytotoxicity (MTT) in human embryonic kidney cells; assay type: cell-based; conditions: 293T cells
# Experimental: Standard MTT (thiazolyl blue; 3-[4,5-dimethylthiazol-2-yl]-2,5-diphenyltetrazolium bromide) assays were performed as 5 mg/ml. Briefly, MDA-MB-231 or 293T cells were seeded into 96-well plates and incubated for 24 h at 37°C. All compounds were dissolved in DMSO, and a gradient dilution series were prepared in 100 μl of cell medium, added to cells (in triplicates), and incubated for 48 h at 37°C with 5% CO2. MTT was added (5 mg/ml, 20 μl) to each plate and these mixtures were incubated for another 4 h. Then, the medium was removed, and the mixture was completely dissolved in DMSO (200 μL) after shaking for 10 min.
# MDA-MB-231 cells [3] = experiment: Anti-proliferation test (MTT); assay type: cell-based; conditions: Homo sapiens, 48 h
# CDK1/cyclin B = CDK1/cyclin B (Homo sapiens, UniProt P06493); experiment: CDK1 inhibition, Kinase-Glo Luminescent Kinase Assay; assay type: biochemical; conditions: for selectivity for CDK2 over CDK1: ratio of IC50 values
# Experimental: (§1) Experiments were carried out using the Kinase-Glo® Luminescent Kinase Assays as described previously ([Kashem et al., 2007]). Briefly, all enzymatic reactions were conducted at 30°C for 40 min. The 50 µl reaction mixture contains 40 mM Tris, pH 7.4, 10 mM MgCl2, 0.1 mg/ml BSA, 1 mM DTT, 10 µM ATP, 0.2 μg/ml CDKs, and 100 μM lipid substrate. The compounds were diluted with 10% DMSO and then 5 µl of the dilution was removed and put into the subsequent reaction. The kinase activities were measured by detecting the content of remaining ATP. The luminescent signal was correlated with the amount of residual ATP and negatively correlated with the amount of kinase activity. The IC50 values were calculated using Prism GraphPad software.
# CDK8/cyclin C = CDK8/cyclin C (Homo sapiens, UniProt P49336); experiment: CDK8 inhibition, Kinase-Glo Luminescent Kinase Assay; assay type: biochemical; conditions: for selectivity for CDK2 over CDK8: CDK8 inhibition <20% @ 5 μM; for CDK8/cyclin C Inhibition rate @5 μM (%) / inhibition at 5 µM: compound at 5 μM; for inhibition at 5 µM: read-out: CDK8/cyclin C Inhibition rate @5 μM (%)
# Experimental: as §1
# CDK6/cyclin D3 = CDK6/cyclin D3 (Homo sapiens, UniProt Q00534); experiment: CDK6 inhibition, Kinase-Glo Luminescent Kinase Assay; assay type: biochemical; conditions: for selectivity for CDK2 over CDK6: ratio of IC50 values
# Experimental: as §1
# CDK4/D1 = test system: CDK4/D1; design: method as in Fry et al., 2004; conditions: ref Fry et al., 2004; cited from earlier work
# CDK6/D2 = test system: CDK6/D2; design: method as in Fry et al., 2004; conditions: ref Fry et al., 2004; cited from earlier work
# CDK4/D3 = test system: CDK4/D3; design: method as in Fry et al., 2004; conditions: ref Fry et al., 2004; cited from earlier work
# Sequence of CDK8/cyclin C (P49336 whole entry): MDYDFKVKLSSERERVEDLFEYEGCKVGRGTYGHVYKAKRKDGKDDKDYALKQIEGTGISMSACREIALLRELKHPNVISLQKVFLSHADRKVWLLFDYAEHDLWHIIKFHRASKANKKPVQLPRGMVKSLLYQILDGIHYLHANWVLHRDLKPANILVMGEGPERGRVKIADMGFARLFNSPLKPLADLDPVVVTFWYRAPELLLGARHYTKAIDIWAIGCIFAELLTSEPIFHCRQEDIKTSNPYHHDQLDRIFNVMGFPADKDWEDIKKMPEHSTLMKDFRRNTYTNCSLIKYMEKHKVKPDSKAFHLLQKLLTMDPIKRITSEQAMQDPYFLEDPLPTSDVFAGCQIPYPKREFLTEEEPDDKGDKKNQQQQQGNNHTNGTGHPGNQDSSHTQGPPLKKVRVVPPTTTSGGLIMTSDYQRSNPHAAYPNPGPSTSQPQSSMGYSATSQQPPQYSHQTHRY
# Sequence of CDK8/cyclin C (P24863 whole entry partner): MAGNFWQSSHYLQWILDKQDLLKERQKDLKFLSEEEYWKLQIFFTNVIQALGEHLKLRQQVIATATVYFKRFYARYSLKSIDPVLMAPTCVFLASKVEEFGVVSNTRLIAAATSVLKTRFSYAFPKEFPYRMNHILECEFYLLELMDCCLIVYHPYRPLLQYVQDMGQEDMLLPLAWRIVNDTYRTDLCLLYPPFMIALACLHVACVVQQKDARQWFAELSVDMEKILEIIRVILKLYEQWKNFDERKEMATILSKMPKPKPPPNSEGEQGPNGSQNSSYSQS
# Sequence of CDK1/cyclin B (P06493 whole entry): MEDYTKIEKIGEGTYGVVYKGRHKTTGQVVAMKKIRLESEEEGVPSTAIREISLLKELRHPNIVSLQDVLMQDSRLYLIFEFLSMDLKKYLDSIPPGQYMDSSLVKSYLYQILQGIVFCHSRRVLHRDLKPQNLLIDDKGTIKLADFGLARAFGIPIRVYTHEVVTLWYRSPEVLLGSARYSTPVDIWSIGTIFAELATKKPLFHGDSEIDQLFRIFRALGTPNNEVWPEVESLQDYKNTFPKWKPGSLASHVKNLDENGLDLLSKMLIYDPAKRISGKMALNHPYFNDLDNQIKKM
# Sequence of CDK1/cyclin B (P14635 whole entry partner): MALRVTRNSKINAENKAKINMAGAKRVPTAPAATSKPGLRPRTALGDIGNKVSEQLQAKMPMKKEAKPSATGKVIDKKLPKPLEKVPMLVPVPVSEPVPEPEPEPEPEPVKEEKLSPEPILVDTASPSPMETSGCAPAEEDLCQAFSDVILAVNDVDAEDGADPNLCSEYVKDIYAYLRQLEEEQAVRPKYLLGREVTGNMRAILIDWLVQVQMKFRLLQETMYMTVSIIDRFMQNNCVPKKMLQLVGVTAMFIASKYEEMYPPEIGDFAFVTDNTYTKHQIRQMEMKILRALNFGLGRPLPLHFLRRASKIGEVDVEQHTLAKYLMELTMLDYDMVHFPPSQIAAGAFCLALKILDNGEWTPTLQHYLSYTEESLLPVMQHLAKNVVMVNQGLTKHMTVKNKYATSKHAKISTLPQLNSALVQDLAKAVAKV
# Sequence of CDK6/cyclin D3 (Q00534 whole entry): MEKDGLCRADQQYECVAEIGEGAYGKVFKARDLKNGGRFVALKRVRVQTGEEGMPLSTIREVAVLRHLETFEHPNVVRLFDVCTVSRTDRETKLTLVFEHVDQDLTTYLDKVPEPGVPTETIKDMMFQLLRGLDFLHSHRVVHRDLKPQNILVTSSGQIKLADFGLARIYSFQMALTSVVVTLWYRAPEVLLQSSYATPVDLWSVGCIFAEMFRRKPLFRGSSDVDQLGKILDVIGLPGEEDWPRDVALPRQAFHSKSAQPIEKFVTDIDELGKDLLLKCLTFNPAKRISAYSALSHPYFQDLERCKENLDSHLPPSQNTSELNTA
# Sequence of CDK6/cyclin D3 (P30281 whole entry partner): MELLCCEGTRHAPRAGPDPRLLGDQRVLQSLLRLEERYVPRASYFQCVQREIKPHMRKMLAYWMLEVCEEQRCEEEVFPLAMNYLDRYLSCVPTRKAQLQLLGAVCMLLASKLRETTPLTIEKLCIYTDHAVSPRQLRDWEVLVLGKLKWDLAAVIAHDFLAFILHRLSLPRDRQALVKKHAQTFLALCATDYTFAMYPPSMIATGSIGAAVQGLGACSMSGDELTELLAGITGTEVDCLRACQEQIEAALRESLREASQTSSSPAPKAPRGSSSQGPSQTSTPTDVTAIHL
Structure (SMILES),IC50 (CDK2/cyclin A) [nM],"IC50 (CDK2/A; ref Wang et al., 2013) [µM]",melting point [°C],"IC50 (CDK1/B; ref Wang et al., 2013) [µM]",effect on cell cycle (percentage of cells in G2/M phase) (MDA-MB-231 cells [1]),IC50 at 48 h [2] [µM],IC50 (MDA-MB-231 cells [3]) [µM],IC50 (CDK1/cyclin B) [nM],selectivity for CDK2 over CDK1 (CDK1/cyclin B) [fold],selectivity for CDK2 over CDK8 (CDK8/cyclin C),CDK8/cyclin C Inhibition rate @5 μM (%) (CDK8/cyclin C),inhibition at 5 µM (CDK8/cyclin C) [%],IC50 (CDK6/cyclin D3) [nM],selectivity for CDK2 over CDK6 (CDK6/cyclin D3),"IC50 (CDK2/A; ref Coxon et al., 2017) [µM]","IC50 (CDK1/B; ref Coxon et al., 2017) [µM]",IC50 (CDK4/D1) [nM],IC50 (CDK6/D2) [nM],IC50 (CDK4/D3) [nM]
"Cl.Nc1cccc(-c2nc(Nc3cccc([N+](=O)[O-])c3)nc3[nH]cnc23)c1 [Compound 11a, 6-(3-aminophenyl)-N-(3-nitrophenyl)-9H-purin-2-amine hydrochloride]",310 ± 20,0.023,> 300,0.35,–,–,–,–,–,–,–,–,–,–,–,–,–,–,–
"Cl.NCc1cccc(-c2nc(Nc3ccc(S(N)(=O)=O)cc3)nc3[nH]cnc23)c1 [Compound 11l, 4-((6-(3-(aminomethyl)phenyl)-9H-purin-2-yl)amino)benzenesulfonamide hydrochloride]",19 ± 1,–,–,–,increased the percentage of cells in the G2/M phase,> 100,8.11 to 15.7,120 ± 20,4.6 to 6.3,more than 140 fold,11,< 20,2700 ± 500,more than 140 fold,–,–,–,–,–
"CNS(=O)(=O)c1ccc(Nc2nc(-c3cccc(CN)c3)c3nc[nH]c3n2)cc1.Cl [Compound 11p, 4-((6-(3-(aminomethyl)phenyl)-9H-purin-2-yl)amino)-N-methylbenzenesulfonamide hydrochloride]",32 ± 1,–,> 300,–,increased the percentage of cells in the G2/M phase,–,8.11 to 15.7,150 ± 20,4.6 to 6.3,more than 140 fold,15,< 20,4800 ± 100,more than 140 fold,–,–,–,–,–
"NS(=O)(=O)c1ccc(Nc2nc(-c3cccc(-c4ccccc4)c3)c3nc[nH]c3n2)cc1 [compound 73, reference compound]",–,–,–,–,–,–,–,–,–,–,–,–,–,–,0.044,86,–,–,–
CC(=O)c1c(C)c2cnc(Nc3ccc(N4CCNCC4)cn3)nc2n(C2CCCC2)c1=O [Palbociclib],–,–,–,–,–,–,–,–,–,–,–,–,–,–,–,–,[…],15,[…]
"Cl.NCc1cccc(-c2nc(Nc3cccc([N+](=O)[O-])c3)nc3[nH]cnc23)c1 [Compound 11c, 6-(3-(aminomethyl)phenyl)-N-(3-nitrophenyl)-9H-purin-2-amine hydrochloride]",110 ± 10,–,236 to 238,–,increased the percentage of cells in the G2/M phase,–,8.11 to 15.7,240 ± 40,2,more than 42 fold,19,< 20,2200 ± 100,18 fold,–,–,–,–,–
